Key:
Assay type in all cases: in vivo
Barnyard grass [1] = test: Herbicidal activity test for indoor pre-emergence soil treatment; design: key: level 1-9; higher = more weed remaining vs blank control; details: 150 g a.i./ha, visual inspection 21 days after treatment
How it was run: (§1)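 Pre-emergence test following NY/T 1155.3-2006: weed seeds were sown in moistened neutral sandy loam (≤2% organic matter) and covered with 0.5–2.0 cm of soil. After 24 h, the soil was sprayed with a 10% EC diluted in water at 150 g(a.i.)/ha. Damage was scored visually on a 1–9 scale at 21 days.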

Piemarker [2] = test: as above; design: key: level 1-9; higher = more weed remaining vs blank control; details: 150 g a.i./ha, visual inspection 21 days after treatment
How it was run: as §1

green bristlegrass [3] = test: as above; design: key: level 1-9; higher = more weed remaining vs blank control; details: 150 g a.i./ha, visual inspection 21 days after treatment
How it was run: as §1

Amaranthus retroflexus [4] = test: as above; design: key: 1-9 levels; higher = more weed remaining vs blank control; details: 150 g a.i./ha, visual inspection 21 days after treatment
How it was run: as §1

Digitaria sanguinalis [5] = test: as above; design: key: 1-9 levels; higher = more weed remaining vs blank control; details: 150 g a.i./ha, visual inspection 21 days after treatment
How it was run: as §1

Humulus scandens [6] = test: as above; details: 150 g a.i./ha, visual inspection 21 days after treatment
How it was run: as §1

Amaranthus retroflexus [7] = test: Herbicidal activity test for indoor post-emergence spraying on stems and leaves; design: key: grade level by weed remaining vs blank control, e.g. 5 = 10.1-15%; details: 150 g a.i./ha, visual inspection 21 days after treatment
How it was run: (§2)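 Post-emergence stem and leaf spray in an indoor test following NY/T 1155.4-2006, with weeds sown and grown in a greenhouse. Effect scored visually 21 days after treatment as graded levels, each level set by the percentage of weed remaining relative to the blank control area.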

Barnyard grass [8] = test: as above; design: key: grade level by weed remaining vs blank control, e.g. 5 = 10.1-15%; details: 150 g a.i./ha, visual inspection 21 days after treatment
How it was run: as §2

Digitaria sanguinalis [9] = test: as above; design: key: grade level by weed remaining vs blank control, e.g. 5 = 10.1-15%; details: 150 g a.i./ha, visual inspection 21 days after treatment
How it was run: as §2

Humulus scandens [10] = test: as above; design: key: grade level by weed remaining vs blank control, e.g. 5 = 10.1-15%; details: 150 g a.i./ha, visual inspection 21 days after treatment
How it was run: as §2

Piemarker [11] = test: as above; design: key: grade level by weed remaining vs blank control, e.g. 5 = 10.1-15%; details: 150 g a.i./ha, visual inspection 21 days after treatment
How it was run: as §2

green bristlegrass [12] = test: as above; design: key: grade level by weed remaining vs blank control, e.g. 5 = 10.1-15%; details: 150 g a.i./ha, visual inspection 21 days after treatment
How it was run: as §2

Broadleaf weed = test: Post-emergence herbicidal activity test in a paddy field; design: key: level scale; higher level = more weed left vs blank control; details: 150 g a.i./ha (penoxsulam control 250 g(a.i.)/h)
How it was run: (§3)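 Efficacy was visually estimated 15 and 30 days after spraying, grading weed coverage relative to an untreated neighbouring plot (level 2 = 0 to 2.5%, level 9 = 67.6 to 100%). Treatments were 150 g(a.i.)/ha from 10% emulsifiable concentrates applied at the 4-5 leaf rice stage, four repeats of 50 m^2 each.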

Cyperaceae = test: as above; design: key: level scale; higher level = more weed left vs blank control; details: 150 g a.i./ha (penoxsulam control 250 g(a.i.)/h)
How it was run: as §3

Gramineae = test: as above; design: key: level scale; higher level = more weed left vs blank control; details: 150 g a.i./ha (penoxsulam control 250 g(a.i.)/h)
How it was run: as §3

Acalypha australis = test: Field test for weed control in a corn field; details: 150 g a.i./ha, after treatment
How it was run: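 Post-emergence field trial in a corn field following GB/T 17980.42-2000. Test compounds were formulated as 10% emulsifiable concentrates, diluted in water, and sprayed at 150 g(a.i.)/ha when corn had 2 to 5 leaves, with 4 replicates on 20 m^2 plots. Mesotrione 25% oil dispersion served as the control agent. Weed control was scored on a 1-9 scale.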

Amaranthus retroflexus [13] = test: Field test for weed control in a corn field; details: 150 g a.i./ha, 30 days after treatment
How it was run: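 Field efficacy trial in a corn field following GB/T 17980.42-2000. Test compounds were formulated as 10% emulsifiable concentrates, diluted in water and sprayed post-emergence when corn had 2 to 5 leaves. Each treatment covered 20 m^2 with 4 replicates. A 25% mesotrione oil dispersion served as control. Damage to Amaranthus retroflexus was rated on a 1-9 scale against untreated blank plots.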

Barnyard grass [14] = test: Field test for weed control in a corn field; details: 150 g a.i./ha, 30 days after treatment
How it was run: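 Corn-field efficacy trial following GB/T 17980.42-2000. Test compounds were formulated as 10% emulsifiable concentrates, diluted in water and sprayed post-emergence at 150 g(a.i.)/ha when corn had 2 to 5 leaves. Each treatment was replicated 4 times on 20 m^2 plots. Barnyard grass control was rated on a 1-9 damage scale.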

Chenopodium album = test: Field test for weed control in a corn field; details: 150 g a.i./ha, after treatment
How it was run: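 A corn-field efficacy trial following GB/T 17980.42-2000 tested post-emergence control of Chenopodium album. Test compounds formulated as 10% emulsifiable concentrates were diluted in water and sprayed at 150 g(a.i.)/ha when the corn had 2 leaves to 5 leaves, on 20 m^2 plots with 4 replicates. Herbicidal activity was rated on a 1-9 scale by damage symptoms and severity.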

Convolvulus arvensis = test: Field test for weed control in a corn field; details: 150 g a.i./ha, after treatment
How it was run: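 Field trial of weed control against Convolvulus arvensis in corn, run following GB/T 17980.42-2000. Test agents were formulated as 10% emulsifiable concentrates and sprayed in water at 150 g(a.i.)/ha when corn plants had 2 to 5 leaves. Each treatment was replicated 4 times on 20 m^2 plots, and 25% mesotrione oil dispersion served as the control agent.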

Digitaria sanguinalis [15] = test: Field test for weed control in a corn field; details: 150 g a.i./ha, after treatment
How it was run: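 Field trial in a corn field following GB/T 17980.42-2000. Test compounds were formulated as 10% emulsifiable concentrates, diluted in water and sprayed post-emergence at 150 g(a.i.)/ha when corn had 2 to 5 leaves, with 4 replicates on 20 m^2 plots. Control of Digitaria sanguinalis was scored on a 1-9 scale based on weed damage relative to the untreated blank area.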

Portulaca oleracea = test: Field test for weed control in a corn field; details: 150 g a.i./ha, after treatment
How it was run: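 Field efficacy trial in corn following GB/T 17980.42-2000. Test compounds were prepared as 10% emulsifiable concentrates, diluted in water, and sprayed at 150 g(a.i.)/ha when corn had 2 to 5 leaves after sowing. Plots were 20 m^2 with 4 replicates per treatment. Herbicidal activity was scored on a 1-9 scale from weed damage symptoms and severity.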

Solanum nigrum = test: Field test for weed control in a corn field; details: 150 g a.i./ha, 30 days after treatment
How it was run: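 Post-emergence weed control was tested in a corn field following GB/T 17980.42-2000. Compounds were made into 10% emulsifiable concentrates, diluted in water and sprayed at 150 g(a.i.)/ha when corn had 2 to 5 leaves after sowing, in 20 m^2 plots with 4 replicates. Effects on Solanum nigrum were graded on a 1-9 scale relative to the blank control area.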

goosegrass = test: Field test for weed control in a corn field; details: 150 g a.i./ha, after treatment
How it was run: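 Weed control efficacy against goosegrass was tested in a corn field following GB/T 17980.42-2000. Compounds formulated as 10% emulsifiable concentrates were diluted in water and sprayed post-emergence at 150 g(a.i.)/ha when corn had 2 to 5 leaves, with 4 replicates of 20 m^2 plots. Herbicidal activity was rated on a 1-9 scale by damage symptoms and severity.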

green bristlegrass [16] = test: Field test for weed control in a corn field; details: 150 g a.i./ha, after treatment
How it was run: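 Post-emergence weed control was tested in a corn field following GB/T 17980.42-2000. When the corn had 2 leaves to 5 leaves after sowing, 10% emulsifiable concentrates diluted in water were sprayed at 150 g(a.i.)/ha on 20 m^2 plots, four replicates per treatment. Effects on green bristlegrass were scored on a 1-9 damage scale relative to the blank control area.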

nutgrass flatsedge = test: Field test for weed control in a corn field; details: 150 g a.i./ha, after treatment
How it was run: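 A corn field efficacy trial following GB/T 17980.42-2000 assessed post-emergence control of nutgrass flatsedge. Test compounds were formulated as 10% emulsifiable concentrates, diluted in water, and sprayed at 150 g(a.i.)/ha when the corn had 2 to 5 leaves. Each treatment had 4 replicates on 20 m^2 plots. Herbicidal activity was graded on a 1-9 scale by damage symptoms and severity.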

SMILES	Herbicidal Activity Barnyard grass (Barnyard grass [1])	Herbicidal Activity Piemarker (Piemarker [2])	Herbicidal Activity Green bristlegrass (green bristlegrass [3])	Herbicidal Activity Amaranthus retroflexus (Amaranthus retroflexus [4])	Herbicidal Activity Digitaria sanguinalis (Digitaria sanguinalis [5])	Herbicidal Activity Humulus scandens (Humulus scandens [6])	Herbicidal Activity Amaranthus retroflexus (Amaranthus retroflexus [7])	Herbicidal Activity Barnyard grass (Barnyard grass [8])	Herbicidal Activity Digitaria sanguinalis (Digitaria sanguinalis [9])	Herbicidal Activity Humulus scandens (Humulus scandens [10])	Herbicidal Activity Piemarker (Piemarker [11])	Herbicidal Activity Green bristlegrass (green bristlegrass [12])	Herbicidal activity 15 days after treatment Broadleaf weed (Broadleaf weed)	Herbicidal activity 30 days after treatment Broadleaf weed (Broadleaf weed)	Herbicidal activity 15 days after treatment Cyperaceae (Cyperaceae)	Herbicidal activity 30 days after treatment Cyperaceae (Cyperaceae)	Herbicidal activity 15 days after treatment Gramineae (Gramineae)	Herbicidal activity 30 days after treatment Gramineae (Gramineae)	Post-emergence weed control effect, Acalypha australis (Acalypha australis)	Post-emergence weed control effect, Amaranthus retroflexus (Amaranthus retroflexus [13])	other results
COc1ncccc1C(=O)NCc1cccc(Cl)c1 [Compound A91]	1	1	1	1	2 (equivalent to 0 to 2.5% of the weed in the blank control area)	2 (equivalent to 0 to 2.5% of the weed in the blank control area)	1	1	1	1	1	1	1	1	1	1	2 (equivalent to 0 to 2.5% of the weed in the blank control area)	2 (equivalent to 0 to 2.5% of the weed in the blank control area)	2 (equivalent to 0 to 2.5% of the weed in the blank control area)	1	Post-emergence weed control effect, Barnyard grass (Barnyard grass [14]): 1; Post-emergence weed control effect, Chenopodium album (Chenopodium album): 1; Post-emergence weed control effect, Convolvulus arvensis (Convolvulus arvensis): 1; Post-emergence weed control effect, Digitaria sanguinalis (Digitaria sanguinalis [15]): 2 (equivalent to 0 to 2.5% of the weed in the blank control area); Post-emergence weed control effect, Portulaca oleracea (Portulaca oleracea): 1; Post-emergence weed control effect, Solanum nigrum (Solanum nigrum): 2 (equivalent to 0 to 2.5% of the weed in the blank control area); Post-emergence weed control effect, Goose grass (goosegrass): 2 (equivalent to 0 to 2.5% of the weed in the blank control area); Post-emergence weed control effect, Green bristlegrass (green bristlegrass [16]): 2 (equivalent to 0 to 2.5% of the weed in the blank control area); Post-emergence weed control effect, Nutgrass flatsedge (nutgrass flatsedge): 2 (equivalent to 0 to 2.5% of the weed in the blank control area)
COc1ncccc1C(=O)NCc1cccc(Cl)c1 [Compound A92]	1	1	1	1	1	2 (equivalent to 0 to 2.5% of the weed in the blank control area)	1	1	1	1	1	1	1	1	1	1	2 (equivalent to 0 to 2.5% of the weed in the blank control area)	2 (equivalent to 0 to 2.5% of the weed in the blank control area)	2 (equivalent to 0 to 2.5% of the weed in the blank control area)	1	Post-emergence weed control effect, Barnyard grass (Barnyard grass [14]): 1; Post-emergence weed control effect, Chenopodium album (Chenopodium album): 1; Post-emergence weed control effect, Convolvulus arvensis (Convolvulus arvensis): 1; Post-emergence weed control effect, Digitaria sanguinalis (Digitaria sanguinalis [15]): 2 (equivalent to 0 to 2.5% of the weed in the blank control area); Post-emergence weed control effect, Portulaca oleracea (Portulaca oleracea): 1; Post-emergence weed control effect, Solanum nigrum (Solanum nigrum): 2 (equivalent to 0 to 2.5% of the weed in the blank control area); Post-emergence weed control effect, Goose grass (goosegrass): 1; Post-emergence weed control effect, Green bristlegrass (green bristlegrass [16]): 2 (equivalent to 0 to 2.5% of the weed in the blank control area); Post-emergence weed control effect, Nutgrass flatsedge (nutgrass flatsedge): 2 (equivalent to 0 to 2.5% of the weed in the blank control area)
